# Assays:
# [1] = system: COL3A1 mRNA; experiment: COL3A1 (type 3 collagen) mRNA expression by qRT-PCR in human dermal fibroblasts; assay type: cell-based; conditions: positive control at 5.0 ng/ml, mean±SD
# Protocol: (§1) For the in-vitro collagen production increase test of Example 3 (hereinafter, referred to as “JL-101 powder”), normal human dermal fibroblasts (HDFs) were used. In order to set the test solution concentration of the sample, HDFs were treated with the sample material for 24 hr and the concentration range in which cytotoxicity was not observed was confirmed through a cytotoxicity test. HDFs were treated with 'JL-101 powder' at the set test solution concentration in the same manner, and thus the expression levels of COL1A1 and COL3A1 mRNA, which are collagen genes, were compared and analyzed using real-time PCR (RT-PCR). […] The expression level of a collagen gene was determined by measuring the expression levels of a COL1A1 gene, which is a representative component of type 1 collagen, and of a COL3A1 gene, which is a representative component of type 3 collagen, using quantitative real-time PCR (qRT-PCR) (Peter, 2008). […] The concentration and purity (A260/A280 and A260/A230 ratio) of total mRNA were measured using a MaestroNano® microvolume spectrophotometer (Maestrogen, Las Vegas, NV, USA), and only total mRNA having high purity of 2.0 or more was selected. […] Mix Plus (Solis BioDyne, Estonia), and the expression of the corresponding gene was analyzed using Line-Gene K software (Bioer Technology Co. Ltd., Hangzhou, China). […]
# [2] = system: COL1A1 mRNA; experiment: COL1A1 (type 1 collagen) mRNA expression by qRT-PCR in human dermal fibroblasts; assay type: cell-based; conditions: positive control at 5.0 ng/ml, mean±SD
# Protocol: as §1
substance,measurement,setting,value
TGF-β,increase of expression of COL3A1 mRNA compared to the negative control,[1],22.93±6.21%
same,increase of expression of COL1A1 mRNA compared to the negative control,[2],219.65±7.25%

# Source: patent US12297213B2, “Metal hydroxide complex comprising modified multilayer hydroxide structure comprising active ingredient and method of manufacturing same” (CNPHARM CO., LTD., priority 2018, dated 2025)
